Drawing on PubChem BioAssay AID248 (DTP/NCI, 2004), this text covers T/C for 21 molecules.

The test system of this test is L1210 leukemia ip in BDF1 mice, survival T/C. Nature of the test: NCI In Vivo Anticancer Drug Screen. Data for tumor model L1210 Leukemia (intraperitoneal) in B6D2F1 (BDF1) mice. To be noted: endpoint: mean survival time, higher = longer survival. In short, it runs like this: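 Tumor was transplanted into mice, which were then dosed with test compound or vehicle alone. Survival was recorded for each group, and the treated figure was expressed relative to the control figure.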

The mark [1] stands for this setting: dose: 100.0 mg/kg/injection, schedule: Q01DX001 (ip), vehicle: saline.
Where [2] appears, read: dose: 200.0 mg/kg/injection, schedule: Q01DX001 (ip), vehicle: saline.
Where [3] appears, read: dose: 400.0 mg/kg/injection, schedule: Q01DX001 (ip), vehicle: saline.
The mark [4] stands for this setting: dose: 100.0 mg/kg/injection, schedule: Q04DX003 (ip), vehicle: saline.
The mark [5] stands for this setting: dose: 200.0 mg/kg/injection, schedule: Q04DX003 (ip), vehicle: saline.
Where [6] appears, read: dose: 100.0 mg/kg/injection, schedule: Q04DX003 (ip), vehicle: Klucel (hydroxypropylcellulose) (HPC).
Where [7] appears, read: dose: 200.0 mg/kg/injection, schedule: Q04DX003 (ip), vehicle: Klucel (hydroxypropylcellulose) (HPC).
Where [8] appears, read: dose: 400.0 mg/kg/injection, schedule: Q04DX002 (ip), vehicle: saline with Tween-80.

Toxic doses and inconclusive results are not listed.

As for `O=C(Nc1ccc(Cl)cc1)Oc1ccc(Nc2ccccc2)cc1`, the T/C is 114 % of control (dose: 100.0 mg/kg/injection, schedule: Q04DX002 (ip), vehicle: Klucel (hydroxypropylcellulose) (HPC)); 111 % of control (dose: 200.0 mg/kg/injection, schedule: Q04DX002 (ip), vehicle: Klucel (hydroxypropylcellulose) (HPC)); 111 % of control (dose: 400.0 mg/kg/injection, schedule: Q04DX002 (ip), vehicle: Klucel (hydroxypropylcellulose) (HPC)).
In the case of `CC(=O)Nc1ccc(S(=O)(=O)O)c(OC(C)=O)c1`, the T/C by setting is: under setting [1], 100 % of control; under setting [2], 93 % of control; under setting [3], 114 % of control.
In the case of `CN(N=O)C(=O)NCCSSCCNC(=O)N(C)N=O`, the T/C by setting is: (dose: 5.0 mg/kg/injection, schedule: Q01DX011 (ip), vehicle: carboxymethylcellulose (CMC)) 107 % of control; (dose: 5.0 mg/kg/injection, schedule: Q01DX Z (ip), vehicle: carboxymethylcellulose (CMC)) 104 % of control; (dose: 10.0 mg/kg/injection, schedule: Q01DX011 (ip), vehicle: carboxymethylcellulose (CMC)) 102 % of control; (dose: 10.0 mg/kg/injection, schedule: Q01DX Z (ip), vehicle: carboxymethylcellulose (CMC)) 104 % of control; (dose: 20.0 mg/kg/injection, schedule: Q01DX011 (ip), vehicle: carboxymethylcellulose (CMC)) 112 % of control; (dose: 20.0 mg/kg/injection, schedule: Q01DX Z (ip), vehicle: carboxymethylcellulose (CMC)) 112 % of control. Moreover, the T/C reads like this: (dose: 40.0 mg/kg/injection, schedule: Q01DX011 (ip), vehicle: carboxymethylcellulose (CMC)) 161 % of control; (dose: 40.0 mg/kg/injection, schedule: Q01DX Z (ip), vehicle: carboxymethylcellulose (CMC)) 119 % of control.
For the molecule `CC(=O)Oc1ccc(N2C(=O)C=CC2=O)cc1`, the T/C was 97 % of control (dose: 3.12 mg/kg/injection, schedule: Q01DX009 (ip), vehicle: Klucel (hydroxypropylcellulose) (HPC)); 96 % of control (dose: 6.25 mg/kg/injection, schedule: Q01DX009 (ip), vehicle: Klucel (hydroxypropylcellulose) (HPC)); 100 % of control (dose: 12.5 mg/kg/injection, schedule: Q01DX009 (ip), vehicle: Klucel (hydroxypropylcellulose) (HPC)); 118 % of control (dose: 25.0 mg/kg/injection, schedule: Q04DX003 (ip), vehicle: Klucel (hydroxypropylcellulose) (HPC)).
As for `COc1ccc(/C=N/N2CCN(/N=C/c3ccc(OC)c(O)c3)CC2)cc1O`, the T/C is 93 % of control under setting [1], 87 % of control under setting [2] and 96 % of control under setting [3].
As to `O=C(c1ccccc1)C(Br)S(=O)(=O)C(Br)C(=O)c1ccccc1` (stereo not drawn), the T/C by setting is: under setting [4], 107 % of control; under setting [5], 107 % of control; (dose: 400.0 mg/kg/injection, schedule: Q04DX003 (ip), vehicle: saline) 109 % of control.
With `COc1ccc(OC)c(NC(=O)c2ccc(N(CCc3cnc4nc(NC(C)=O)[nH]c(=O)c4n3)C(=O)C(F)(F)F)cc2)c1`, the T/C (dose: 100.0 mg/kg/injection, schedule: Q01DX009 (ip), vehicle: carboxymethylcellulose (CMC)) is 104 % of control; the T/C (dose: 100.0 mg/kg/injection, schedule: Q04DX003 (ip), vehicle: other) was 97 % of control; the T/C (dose: 200.0 mg/kg/injection, schedule: Q01DX009 (ip), vehicle: carboxymethylcellulose (CMC)) was 94 % of control; the T/C (dose: 200.0 mg/kg/injection, schedule: Q04DX003 (ip), vehicle: other) was 97 % of control; the T/C (dose: 400.0 mg/kg/injection, schedule: Q01DX009 (ip), vehicle: carboxymethylcellulose (CMC)) is 94 % of control; the T/C (dose: 400.0 mg/kg/injection, schedule: Q04DX003 (ip), vehicle: other) is 92 % of control.
Take `COc1ccc2c(c1)CCC2=O`: the T/C is 112 % of control (dose: 50.0 mg/kg/injection, schedule: Q01DX009 (ip), vehicle: saline with Tween-80); 112 % of control (dose: 100.0 mg/kg/injection, schedule: Q01DX009 (ip), vehicle: saline with Tween-80); 91 % of control under setting [6]; 96 % of control under setting [7].
Regarding `Nc1nc(=S)c2n[nH]nc2[nH]1`, the T/C (dose: 100.0 mg/kg/injection, schedule: Q01DX001 (ip), vehicle: saline with Tween-80) was 94 % of control.
In the case of `COc1ccc(OC)c2c(OC(C)=O)c3ccccc3c(OC(C)=O)c12`, the T/C by setting is: (dose: 50.0 mg/kg/injection, schedule: Q01DX001 (ip), vehicle: carboxymethylcellulose (CMC)) 98 % of control; (dose: 100.0 mg/kg/injection, schedule: Q01DX001 (ip), vehicle: carboxymethylcellulose (CMC)) 108 % of control; (dose: 200.0 mg/kg/injection, schedule: Q01DX001 (ip), vehicle: carboxymethylcellulose (CMC)) 98 % of control; (dose: 400.0 mg/kg/injection, schedule: Q01DX001 (ip), vehicle: carboxymethylcellulose (CMC)) 110 % of control.
With `C[S+](C)CC(=O)c1ccc(Br)cc1`, the T/C is, setting by setting: under setting [6], 97 % of control; under setting [7], 95 % of control; (dose: 400.0 mg/kg/injection, schedule: Q04DX003 (ip), vehicle: Klucel (hydroxypropylcellulose) (HPC)) 101 % of control.
Take `CC(=O)C1(Cl)CCC(C(C)(C)C)CC1` (stereo not drawn): the T/C is, setting by setting: (dose: 100.0 mg/kg/injection, schedule: Q04DX002 (ip), vehicle: saline with Tween-80) 111 % of control; (dose: 200.0 mg/kg/injection, schedule: Q04DX002 (ip), vehicle: saline with Tween-80) 103 % of control; under setting [8], 103 % of control.
For the molecule `O=[N+]([O-])/C=C\c1ccc(/C=C/[N+](=O)[O-])cc1`, the T/C was 95 % of control (dose: 1.5 mg/kg/injection, schedule: Q01DX009 (ip), vehicle: other); 101 % of control (dose: 1.5 mg/kg/injection, schedule: Q04DX003 (ip), vehicle: other); 93 % of control (dose: 3.0 mg/kg/injection, schedule: Q01DX009 (ip), vehicle: other); 101 % of control (dose: 3.0 mg/kg/injection, schedule: Q04DX003 (ip), vehicle: other); 98 % of control (dose: 6.0 mg/kg/injection, schedule: Q04DX003 (ip), vehicle: other).
On to `CCNC(=O)CS(=O)(=O)c1ccc(C)cc1`, for which the T/C reads like this: (dose: 100.0 mg/kg/injection, schedule: Q04DX003 (ip), vehicle: saline with Tween-80) 101 % of control; (dose: 200.0 mg/kg/injection, schedule: Q04DX003 (ip), vehicle: saline with Tween-80) 94 % of control; (dose: 400.0 mg/kg/injection, schedule: Q04DX003 (ip), vehicle: saline with Tween-80) 97 % of control.
For `CCOc1ccccc1NC(=O)c1ccccc1Cl`, the T/C runs as follows: (dose: 100.0 mg/kg/injection, schedule: Q01DX009 (ip), vehicle: Klucel (hydroxypropylcellulose) (HPC)) 102 % of control; (dose: 200.0 mg/kg/injection, schedule: Q01DX009 (ip), vehicle: Klucel (hydroxypropylcellulose) (HPC)) 108 % of control; (dose: 400.0 mg/kg/injection, schedule: Q01DX009 (ip), vehicle: Klucel (hydroxypropylcellulose) (HPC)) 93 % of control.
In the case of `O=C1OC(=O)c2ccc(Sc3ccccn3)c3cccc1c23`, the T/C by setting is: (dose: 100.0 mg/kg/injection, schedule: Q04DX003 (ip), vehicle: carboxymethylcellulose (CMC)) 93 % of control; (dose: 200.0 mg/kg/injection, schedule: Q04DX003 (ip), vehicle: carboxymethylcellulose (CMC)) 88 % of control; (dose: 400.0 mg/kg/injection, schedule: Q04DX003 (ip), vehicle: carboxymethylcellulose (CMC)) 93 % of control.
With `O=S(=O)(/C(=C\c1ccccc1)c1ccccc1)C(Cl)c1ccccc1` (stereo not drawn), the T/C is 96 % of control under setting [1], 110 % of control under setting [2] and 95 % of control under setting [3].
As to `CN(c1ccccc1Cl)c1ccccc1Cl`, the T/C reads like this: (dose: 64.0 mg/kg/injection, schedule: Q04DX002 (ip), vehicle: saline with Tween-80) 104 % of control; (dose: 160.0 mg/kg/injection, schedule: Q04DX002 (ip), vehicle: saline with Tween-80) 89 % of control; under setting [8], 86 % of control.
As for `O=P(O)(CO)CO`, the T/C under setting [4] is 109 % of control and the T/C under setting [5] is 95 % of control.
Consider `CCN(CC)CCCC(C)Nc1ccnc2ccc(-c3ccccc3)cc12` (stereo not drawn), for which the T/C (dose: 5.0 mg/kg/injection, schedule: Q01DX001 (ip), vehicle: saline) is 100 % of control; the T/C (dose: 10.0 mg/kg/injection, schedule: Q01DX001 (ip), vehicle: saline) was 100 % of control; the T/C (dose: 20.0 mg/kg/injection, schedule: Q01DX001 (ip), vehicle: saline) is 91 % of control; the T/C (dose: 40.0 mg/kg/injection, schedule: Q01DX001 (ip), vehicle: saline) was 96 % of control; the T/C (dose: 80.0 mg/kg/injection, schedule: Q01DX001 (ip), vehicle: saline) was 104 % of control.
In the case of `NC(=O)c1cc2ccccc2[n+](Cc2ccc(F)cc2)c1`, under “dose: 75.0 mg/kg/injection, schedule: Q01DX001 (ip), vehicle: saline”, the T/C is 107 % of control.
